# Patent US20240043860A1, “NOVEL HYDROXYPHENYLPYRUVATE DIOXYGENASE POLYPEPTIDES AND METHODS OF USE THEREOF” (Syngenta Crop Protection AG, priority 2020, published 2024)
# pIC50: −log10 of the molar value. Several values for one entry are separate records, joined by “and”; a condition that tells them apart may be missing. Equal values may be shown once.
# Key:
# [1] = system: transgenic tobacco plants expressing mutant HPPD SEQ ID NO: 122; experiment: spray test, herbicidal damage scoring; type: in vivo; settings: Table 3.2; 14 days after treatment; best events, SEQ ID 122; 100=complete death, 0=no damage; one value per event
# [2] = system: transgenic tobacco plants expressing mutant HPPD SEQ ID NO: 14; experiment: spray test, herbicidal damage scoring; type: in vivo; settings: for tolerance compared to SEQ ID 122 expressing plants: SEQ ID 14 plants, 800 g/ha Mesotrione, 400 g/ha Tembotrione or 400 g/ha Isoxaflutole (Table 3.2)
# Protocol: (§1) Avena sativa HPPD or orthologues and variants thereof, for example SEQ IDs 1-63 and 122-127, were expressed in transgenic tobacco. DNA sequences that encode these polypeptides (optimized for tobacco or, optionally, codon optimized according to a target crop such as soybean) were prepared synthetically. Each sequence was designed to include a 5′ fusion with TMV omega 5′ leader sequence such that they are flanked at the 5′ end with XhoI and at the 3′ end with KpnI to facilitate direct cloning into a suitable binary vector for Agrobacterium-based plant transformation.
# In one example, the TMV omega 5′ leader and a HPPD encoding gene of interest is excised using XhoI/KpnI and cloned into similarly digested binary vector pBIN 19 (Bevan, Nucl. Acids Res. (1984) behind a double enhanced 35S promoter ahead of a NOS 3′ transcription terminator and then transformed into E. coli DH5 alpha competent cells. DNA recovered from the E. coli is used to transform Agrobacterium tumefaciens LBA4404, and transformed bacteria are selected on media contain rifampicin and kanamycin. Tobacco tissue is subjected to Agrobacterium-mediated transformation using methods well described in the art or as described herein. For example, a master plate of Agrobacterium tumefaciens containing the HPPD expressing the binary vector is used to inoculate 10 ml LB (L broth) containing 100 mg/l Rifampicin plus 50 mg/l Kanamycin using a single bacterial colony. This is incubated overnight at 28° C. shaking at 200 rpm. This entire overnight culture is used to inoculate a 50 ml volume of LB containing the same antibiotics. Again this is cultured overnight at 28° C. shaking at 200 rpm. The Agrobacterium cells are pelleted by centrifuging at 3000 rpm for 15 minutes and then resuspended in MS (Murashige and Skoog) medium containing 30 g/l sucrose, pH 5.9 to an OD […]=0.6. This suspension is dispensed in 25 ml aliquots into petri dishes.
# Once rooted, plantlets are transferred from agar and potted into 50% peat, 50% John Innes Soil No. 3 or, for example, MetroMix® 380 soil (Sun Gro Horticulture, Bellevue, WA) with slow-release fertilizer in 3 inch round or 4 inch square pots and left regularly watered to establish for 8-12d in the glass house. Glass house conditions are about 24-27° C. day; 18-21° C. night and approximately a 14h (or longer in UK summer) photoperiod. Humidity is adjusted to ˜65% and light levels used are up to 2000 umol/m^2 at bench level. Once new tissue emerged and plants reach the 2-4 leaf stage, some of the clones from each event are sprayed with an HPPD inhibitor of interest selected from the herbicides listed in reference to Example 1. […] For example Callisto® is mixed in water with 0.2-0.25% X-77 surfactant and sprayed from a boom on a suitable track sprayer moving at 2 mph in a DeVries spray chamber (Hollandale, MN) with the nozzle about 2 inches from the plant tops.
# Plants are assessed for damage and scored at, for example, 7 and 14 days after treatment (DAT). About 20-30 TO events are produced for a number of HPPD variant genes.
# Plants of events showing the least damage are grown to flowering, then bagged and allowed to self. […] Single copy events amongst the Ti plant lines are identified by their 3:1 segregation ratio (with respect to kanamycin and/or herbicide) and by quantitative RT-PCR. Seed from the thus selected Ti tobacco (var. Samsun) lines are sown in 3 inch diameter pots containing 50% peat and 50% John Innes Soil No. 3. After growth to the 3 leaf stage, plants are sprayed as described above in order to test for herbicide tolerance relative to like-treated non-transgenic tobacco plants, and also in comparison with like-treated Ti plants expressing the base HPPD SEQ IDs 122-125. HPPD expression levels were monitored by Western analysis. […]
# [3] = system: wild-type tobacco plants; experiment: spray test, herbicidal damage scoring; type: in vivo; settings: Table 4.1, 7 days after treatment, 100=complete death, 0=no damage, one value per plant/event
# Protocol: (§2) Once rooted, plantlets are transferred from agar and potted into 50% peat, 50% John Innes Soil No. 3 or, for example, MetroMix® 380 soil (Sun Gro Horticulture, Bellevue, WA) with slow-release fertilizer in 3 inch round or 4 inch square pots and left regularly watered to establish for 8-12d in the glass house. Glass house conditions are about 24-27° C. day; 18-21° C. night and approximately a 14h (or longer in UK summer) photoperiod.
# (§3) About 20-30 TO events are produced for a number of HPPD variant genes.
# (§4) Tables 4.1-4.9 show the herbicidal damage scoring on transgenic tobacco plants 7 days after treatment. A score of 100=complete death and 0=no damage observed.
# [4] = system: transgenic tobacco plants expressing mutant HPPD SEQ ID NO: 124; experiment: spray test, herbicidal damage scoring; type: in vivo; settings: Table 4.2, 7 days after treatment, 100=complete death, 0=no damage, one value per event
# Protocol: as §1, with “DNA” for “Avena sativa HPPD or orthologues and variants thereof, for example SEQ IDs 1-63 and 122-127, were expressed in transgenic tobacco. DNA”
# (§5) For example, a master plate of Agrobacterium tumefaciens containing the HPPD expressing the binary vector is used to inoculate 10 ml LB (L broth) containing 100 mg/l Rifampicin plus 50 mg/l Kanamycin using a single bacterial colony. This is incubated overnight at 28° C. shaking at 200 rpm. This entire overnight culture is used to inoculate a 50 ml volume of LB containing the same antibiotics. Again this is cultured overnight at 28° C. shaking at 200 rpm. The Agrobacterium cells are pelleted by centrifuging at 3000 rpm for 15 minutes and then resuspended in MS (Murashige and Skoog) medium containing 30 g/l sucrose, pH 5.9 to an OD […]=0.6. This suspension is dispensed in 25 ml aliquots into petri dishes.
# as §2, §3
# (§6) Single copy events amongst the Ti plant lines are identified by their 3:1 segregation ratio (with respect to kanamycin and/or herbicide) and by quantitative RT-PCR. Seed from the thus selected Ti tobacco (var. Samsun) lines are sown in 3 inch diameter pots containing 50% peat and 50% John Innes Soil No. 3. […] HPPD expression levels were monitored by Western analysis.
# as §4
# [5] = system: transgenic tobacco plants expressing mutant HPPD SEQ ID NO: 122; experiment: spray test, herbicidal damage scoring; type: in vivo; settings: Table 4.4; 7 days after treatment; SEQ ID NO: 122; 100=complete death, 0=no damage; one value per event
# Protocol: as §1, with “DNA” for “Avena sativa HPPD or orthologues and variants thereof, for example SEQ IDs 1-63 and 122-127, were expressed in transgenic tobacco. DNA”
# as §5, §2, §3, §6, §4
# [6] = system: transgenic tobacco plants expressing mutant HPPD SEQ ID NO: 125; experiment: spray test, herbicidal damage scoring; type: in vivo; settings: Table 4.3, 7 days after treatment, 100=complete death, 0=no damage, one value per event
# Protocol: as §1, with “DNA” for “Avena sativa HPPD or orthologues and variants thereof, for example SEQ IDs 1-63 and 122-127, were expressed in transgenic tobacco. DNA”
# as §5, §2, §3, §6, §4
# [7] = system: HPPD variant ALOME V200 (SEQ ID NO: 7); experiment: coupled HGO assay; type: biochemical, Alopecurus myosuroides
# Protocol: (§7) DNA sequences (SEQ ID NOs: 65-118, 128, 130, 131, and 133), synthesized for expression in E. coli, by GeneWiz (USA) to encode HPPD variants (SEQ ID NOs: 5-58, 122, 124, 125 and 127) derived from either Avena sativa (SEQ ID NOs: 122, 124), Alopecurus myosuroides (SEQ ID NO: 126) or Apera spica-venti (SEQ ID NOs: 123, 125) were transformed into E coli BL21 (DE3) (New England Biolabs) and grown in 0.5 ml Terrific broth +50 ug/ml Kanamycin media in a 96-deepwell block overnight (37° C., 900rpm). 25 ul of the overnight cultures were inoculated into fresh 96-deepwell block containing 1 ml Formedium Autoinduction Media (AIM). The AIM cultures were grown for 3h at 37° C. (900rpm) and then transferred to 20° C. overnight (900rpm) to allow protein expression. The overnight cultures were centrifuged and 500 ul of Cellytic B (Sigma Aldrich) was added to resuspend the cell pellets. The coupled HGO assay (Siehl et al, 2014) is used to generate IC50 values for the HPPD variants of interest.
# (§8) E. coli BL21 (DE3) cells were transformed with a pET24a vector containing a C-terminally his-tagged Arabidopsis HGO gene, grown and induced overnight as described for the HPPD variants above. The cell pellet was resuspended in phosphate buffered saline at pH 7.4 containing 10% Glycerol, 1mm Tris[2-carboxyethyl] phosphine-HCl (TCEP) plus 30 mM Imidazole and lysed using lysozyme/benzonase. The extract was clarified by low speed centrifugation and purified in the same buffer down a 1 ml His Gravitrap column. The bound HGO was eluted in 0.25M imidazole and the fractions pooled and beaded into liquid nitrogen. All procedures apart from the centrifugation and beading steps were carried out under a nitrogen atmosphere.
# (§9) The coupled HGO assay is carried out by adding 10 ul of HPPD extract to a 96-well plate and then adding 40 ul of reaction buffer (50 mM Bis Tris Propane, pH7.0, 25 mM sodium-L-ascorbate, 400μM mercaptoethanol, 50 μM Fe(II)SO4). The plates are left to incubate for 5 minutes on ice. […] 200 ul of HPP/HGO (197 μM hydroxyphenylpyruvic acid, 16 μl/ml Homogentisic Acid Oxidase in reaction buffer as described above) buffer is then added to the well and the reaction is regularly monitored (e.g. every 30 seconds-5 minutes) for absorbance at 330 nm for a given time period (e.g., for between 15-60 minutes). The data can then be used to calculate the IC50 value for each HPPD variant of interest.
# [8] = system: HPPD variant ALOME V162 (SEQ ID NO: 126); experiment: coupled HGO assay; type: biochemical, Alopecurus myosuroides
# Protocol: as §7, §8, §9
# [9] = system: HPPD variant ALOME V209 (SEQ ID NO: 19); experiment: coupled HGO assay; type: biochemical, Alopecurus myosuroides
# Protocol: as §7, §8, §9
# [10] = system: HPPD variant APESV V209 (SEQ ID NO: 18); experiment: coupled HGO assay; type: biochemical, Apera spica-venti
# Protocol: as §7, §8, §9
# [11] = system: HPPD variant APESV V200 (SEQ ID NO: 6); experiment: coupled HGO assay; type: biochemical, Apera spica-venti
# Protocol: as §7, §8, §9
smiles,measurement,setting,value
"CS(=O)(=O)c1ccc(C(=O)C2C(=O)CCCC2=O)c(Cl)c1COCC(F)(F)F [Tembotrione, tembotrione]","herbicidal damage scoring, Tembotrione (400 gai/ha)",[1],45 and 50 and 55 and 65 and 40
same,tolerance compared to SEQ ID 122 expressing plants,[2],increased tolerance
same,"herbicidal damage scoring, Tembotrione (400 gai/ha)","[2]; Table 3.2, 14 days after treatment, best events, SEQ ID 14, 100=complete death, 0=no damage, one value per event",25 and 30
same,"herbicidal damage scoring, Tembotrione (400 gai/ha)",[3],97 and 95 and 98
"Cc1c(C(=O)c2cnn(C)c2O)ccc(S(C)(=O)=O)c1C1=NOCC1 [Topramezone, topramezone]","herbicidal damage scoring, Topramezone (100 g/ha)",[4],0
same,"herbicidal damage scoring, Topramezone (100 g/ha)",[5],0
same,"herbicidal damage scoring, Topramezone (100 g/ha)",[6],0
same,"herbicidal damage scoring, Topramezone (100 g/ha)",[3],98 and 97 and 99 and 95
"CS(=O)(=O)c1cc(C(F)(F)F)ccc1C(=O)c1cnoc1C1CC1 [Isoxaflutole, isoxaflutole]",tolerance compared to SEQ ID 122 expressing plants,[2],equally tolerant
same,"herbicidal damage scoring, Isoxaflutole (400 gai/ha)",[3],95 and 97 and 96
"CS(=O)(=O)c1ccc(C(=O)C2C(=O)CCCC2=O)c([N+](=O)[O-])c1 [Mesotrione, mesotrione]",pIC50,[7],4.50
same,pIC50,[8],4.89
same,pIC50,[9],4.50
same,tolerance compared to SEQ ID 122 expressing plants,[2],equally tolerant
same,pIC50,[10],4.35
same,pIC50,[11],4.49
